SMILES strings stand for the structures. Entries after “also recorded” stand apart in the source; their conditions may differ.

In one experiment the test system is YAP. Kind of experiment: YAP reporter cell-based screen of FDA-approved drugs (luciferase, qPCR validation). To be noted: YAP reporter cell-based screen in a library of FDA-approved drugs. The text has this: FIG. 7B illustrates high-throughput screening results. 449 FDA-approved compounds were screened and evaluated by the z-factor of cell viability and luciferase activity (Blue dots: screened compounds; red dots: positive compounds). The screening criteria is luciferase z-factor <−4 and cell viability >−4. (Positive compound, PC: Fedratinib)
FIG. 7C illustrates qPCR analysis examining the expression of YAP-targeted CTGF and CYR61 was used to validate candidate positive compounds from the screening. Error bars show mean±s.e.m. (n=2).
FIG. 7D illustrates the qPCR analysis of YAP target genes in SF268 cells treated with DMSO or 20 µM EVG for 24 h. Error bars show mean±s.e.m. (n=3).
YAP binding sites were cloned into the NheI and HindIII sites of the pGL4.76 basic vector (Promega) containing heat shock basal promoter. Luciferase activity was measured using the Renilla-Glo® Luciferase Assay System (Promega). Cell viability was measured using CellTiter-Glo® One Solution Assay (Promega). Relative luciferase activity=luciferase activity/cell viability.
Cells were treated with compounds for indicated periods, then total RNAs were extracted with TRIzol™ Reagent (15596018, Invitrogen) and reverse-transcripted using the High efficient cDNA synthesis master mix (FSQ-301, TOYOBO). Quantitative RT-PCR was performed with […] SYBR® Premix Ex Taq™ (RR420, Takara). […]
A general note: Quantitative PCR measures a nucleic acid by following its amplification.

The subject of the next experiment is YAP/TEAD4 condensates. Kind of experiment: Live cell imaging of YAP/TEAD condensates. It is filed as cell-based. To be noted: H1299 cells co-transfected with YAP5SA, TEAD4-mTagBFP, mNeoGreen-SRC1; 20 μM. The protocol: Cells were grown on 24-well glass bottom plate (Cellvis, P24-1.5H-N) and images were taken with the Leica TCS SP8 confocal microscopy system using a 100× oil objective (NA=1.4). Cells were imaged on a heated stage(37° C.) and supplemented with warmed (37° C.) humidified air.
For compounds treatment assay, SF268 cells were co-transfected with YAP5SA, TEAD4-mTagBFP2 and mNeoGreen-SRC1. YAP variant YAP5SA which is insensitive to the upstream Hippo pathway, sequestered YAP in nucleus. To circumvent the limitations brought by red fluorescent proteins, TEAD condensates which have been reported to depend on YAP, were used to characterize YAP/TEAD transcriptional condensates. Six hours after transfection, SF268 cells were seeded on 24-well glass bottom plate (Cellvis, P24-1.5H-N) and compounds were added two hours later. Cells were imaged every 30 mins after EVG or other compounds were added.
Cells were grown on 24-well glass bottom plate (Cellvis, P24-1.5H-N) and images were taken with the Leica TCS SP8 confocal microscopy system using a 100× oil objective (NA=1.4). Cells were imaged on a heated stage (37° C.) and supplemented with warmed (37° C.) humidified air. […]
Data was analyzed by images collected from 100 representative fields in each group. The spots quantification was performed based on the number and intensity of the spots through green (mNeoGreen-SRC1) and blue (TEAD4-mTagBFP2) channel. […]

A further experiment relates to H3K27ac. Kind of experiment: Immunofluorescence of H3K27ac at TEAD puncta in H1299 cells. To be noted: H1299 cells co-expressing YAP5SA, TEAD4-mTagBFP, mNeoGreen-SRC1; 20 μM. It is filed as cell-based. The protocol:
FIG. 7 M illustrates immunofluorescence staining with anti-H3K27ac (red,top) and anti-RNA pol II-S5P (red, bottom) in H1299 cells co-expressing YAP5SA, TEAD4-mTagBFP(blue) and mNeoGreen-SRC1(green) treated with 20 μM EVG. EVG impaired the SRC-1 LLPS. Transcription active markerH3K27ac and active RNA polymerase II phosphorylated at Ser 5 of CTD were not enriched in SRC-1 condensates. Scale bar, 5 μm.
Cells were fixed with 4% PFA for 15 minutes at room temperature. Cells were subsequently washed with PBS (3×3 min) and blocked in PBS/BSA (3%)/Triton X-100 (0.3%) at room temperature for 60 minutes. Cells were rinsed in PBS and incubated with anti-H3K27ac (ab4729, Abcam, 1:100), anti-RNA Pol II-S5P antibody (#04-1572, Millipore, 1:200) in PBS/BSA (1%) overnight at 4° C. Cells were washed with PBST (1×PBS+Tween20 0.2%, 3×5 min) and incubated with the secondary antibody for 1 hours at room temperature. After washing with PBST(3×5 min), cells were stained with DAPI.

The test system of the next experiment is SRC-1. Kind of experiment: Biotin-EVG competition pulldown and thermal shift assays. It is filed as binding. To be noted: Flag-SRC-1, biotin-EVG, increasing concentrations of EVG. The protocol: FIG. 7T illustrates the lysates from SF268 cells overexpressing Flag-SRC-1 were incubated with 20 μM biotin or biotin-EVG for streptavidin-beads pull-down assays.
FIG. 7U illustrates purified Flag-SRC1 protein was incubated with EVG-Biotin in the presence of increasing concentrations of EVG and further subjected to streptavidin-beads pull-down assays.
1 μg of purified recombinant protein Flag-SRC-1 was incubated with […] biotin-EVG/DMSO in the presence of increasing concentrations of Elvitegravir (20, 40, 100, 200 uM) for 30 min (RT) and was further incubated with streptavidin-agarose (20359, Thermo Fisher Scientific) for 20 min (RT). Washing beads with PBS (3×1.5 min). The precipitates were analyzed by western blot with anti-flag antibody.
Methods: Cells (SF268 cells and HEK293FT cells were transfected with expression vector of Flag-SRC-1) were harvested and lysed in lysis buffer (20 mM TrisHCl 7.5, 150 mM NaCl, 0.5% NP40, 5% glycerin, 1% proteinase Cocktail), and then incubated with 20 µM compound with biotin tag or DMSO for 40 min at room temperature. Then incubated with 100 μL streptavidin-agarose (20359, Thermo Fisher Scientific) for 30 min at RT. The beads were washed 4 times with lysis buffer ([…] 1.5 min). And the precipitates were analyzed by western blot with anti-flag antibody. […]

For the compound `COc1cc2c(cc1Cc1cccc(Cl)c1F)c(=O)c(C(=O)O)cn2[C@H](CO)C(C)C` [EVG, 6-[(3-chloro-2-fluorophenyl)methyl]-1-[(2S)-1-hydroxy-3-methylbutan-2-yl]-7-methoxy-4-oxoquinoline-3-carboxylic acid], the YAP activity entry in the experiment with YAP is given as “suppress YAP activity”. The YAP/TEAD condensates entry in the experiment with YAP/TEAD4 condensates is “remained intact; also recorded: but not the YAP/TEAD4 condensates”. Moreover, the “enrichment of H3K27ac at TEAD puncta” value in the experiment on H3K27ac is “inhibited the enrichment”. Moreover, in the experiment with SRC-1, the “binding to SRC-1, competition pulldown and thermal shift” value was “both direct and specific”.

The values above are taken from patent publication US20240125768A1, “METHODS FOR MODULATING A SRC-1 CONDENSATE” (ETERN BIOPHARMA (SHANGHAI) CO., LTD., priority 2021, published 2024).
